Relative viability data for 6 molecules are collected here from the supplement of paper PMC10307832.

Assay in all cases: relative viability (nuclei count vs DMSO), 5 days (fraction); higher = more cells survive
In assay [1] the test system is A549. A digest of the protocol: (§1)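 Lung cancer cell lines were pin-tool dosed in 1536-well plates on the day after seeding, with either a lone drug or a fixed anchor-drug dose plus five library-drug doses (not always all listed) in √10 steps. Nuclei were counted on 4× images after 5 days. Relative viability is the ratio of treated-well to vehicle-well nuclei counts, with each value a median of duplicate plates.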

Assay [2] relates to Calu-6. The method, boiled down: as §1
Assay [3] relates to EBC-1. A digest of the protocol:
as §1

The subject of assay [4] is IA-LM. A digest of the protocol: as §1
Assay [5] relates to NCI-H1299. The method, boiled down:
as §1

Assay [6] has as its system NCI-H1648. The method, boiled down:
as §1

The subject of assay [7] is NCI-H1703. A digest of the protocol: as §1
The subject of assay [8] is NCI-H661. A digest of the protocol:
as §1

The test system of assay [9] is NCI-H1623. A digest of the protocol: as §1

Consider `COc1cc(N2CCC(C(N)=O)CC2)ccc1Nc1nc(N)c(Cl)c(Nc2ccccc2S(=O)(=O)C(C)C)n1` [HG-5-88-01] + O=C(c1cc(Cc2n[nH]c(=O)c3ccccc23)ccc1F)N1CCN(C(=O)C2CC2)CC1 [Olaparib] (partner 8 µM), for which the relative viability was 0.357 in [1] (first compound 0.04 µM); 0.419 in assay [1] (first compound 0.1265 µM); 0.352 in [1] (first compound 0.4 µM); 0.273 in assay [1] (first compound 1.265 µM); 0.25 in assay [1] (first compound 4 µM); 0.599 in [2] (first compound 0.04 µM). For the same molecule, the relative viability came out at 0.579 in assay [2] (first compound 0.1265 µM); 0.579 in assay [2] (first compound 0.4 µM); 0.537 in assay [2] (first compound 1.265 µM); 0.46 in assay [2] (first compound 4 µM); 0.712 in assay [3] (first compound 0.04 µM); 0.77 in [3] (first compound 0.1265 µM). In addition, the relative viability worked out at 0.733 in assay [3] (first compound 0.4 µM); 0.668 in assay [3] (first compound 1.265 µM); 0.489 in [3] (first compound 4 µM); 0.79 in [4] (first compound 0.04 µM); 0.839 in assay [4] (first compound 0.1265 µM); 0.87 in assay [4] (first compound 0.4 µM). Moreover, the relative viability in assay [4] (first compound 1.265 µM) stood at 0.699; in assay [4] (first compound 4 µM), 0.649; in [5] (first compound 0.04 µM) it was 0.956; in assay [5] (first compound 0.1265 µM), 0.972; in assay [5] (first compound 0.4 µM), 0.986; in [5] (first compound 1.265 µM) it was 0.951. The relative viability in assay [5] (first compound 4 µM) was found to be 0.87; in assay [6] (first compound 0.04 µM), 1.13; in [6] (first compound 0.1265 µM), 0.63; in [6] (first compound 0.4 µM), 0.457; in assay [6] (first compound 1.265 µM) it was 0.773; in [6] (first compound 4 µM), 0.462. Further, the relative viability worked out at 0.341 in assay [7] (first compound 0.04 µM); 0.386 in [7] (first compound 0.1265 µM); 0.305 in assay [7] (first compound 1.265 µM); 0.309 in assay [7] (first compound 4 µM); 0.707 in assay [8] (first compound 0.04 µM); 0.779 in assay [8] (first compound 0.1265 µM). Further, the figures for the relative viability in assay [8] (first compound 0.4 µM), in assay [8] (first compound 1.265 µM) and in assay [8] (first compound 4 µM) were 0.8, 0.716 and 0.845, respectively.
On to `C[C@@H]1CN(CC(=O)Nc2ccc3c(c2)Cc2cccc(-c4cc(=O)cc(N5CCOCC5)o4)c2S3)C[C@H](C)O1` + CCNC(=O)c1noc(-c2cc(C(C)C)c(O)cc2O)c1-c1ccc(CN2CCOCC2)cc1 [Luminespib] (partner 0.01 µM), for which the relative viability in [9] (first compound 0.04 µM) turned out to be 0.439; in [9] (first compound 0.1265 µM) it was 0.473; in assay [9] (first compound 0.4 µM), 0.442; in [9] (first compound 4 µM) it was 0.561; in assay [8] (first compound 0.04 µM), 0.964; in assay [8] (first compound 0.1265 µM), 0.938. Besides, the results for the relative viability in [8] (first compound 0.4 µM) and in [8] (first compound 4 µM) were 0.97 and 0.813, respectively.
For the molecule `CC(C)Oc1cc(Nc2nc(N[C@@H](C)c3ccc(F)cn3)ncc2Cl)n[nH]1` [AZ23] + N=C(N)NC(=N)NCCc1ccccc1 [Phenformin] (partner 250 µM), the relative viability in [1] (first compound 0.01 µM) turned out to be 0.181; in assay [1] (first compound 0.03162 µM), 0.227; in [1] (first compound 0.3162 µM) it was 0.176; in assay [9] (first compound 0.01 µM), 0.54; in assay [9] (first compound 0.03162 µM) it was 0.618; in [9] (first compound 0.3162 µM) it was 0.61. Besides, the relative viability worked out at 0.293 in assay [8] (first compound 0.01 µM), 0.257 in assay [8] (first compound 0.03162 µM) and 0.241 in [8] (first compound 0.3162 µM).
Take `C[C@@H]1CN(CC(=O)Nc2ccc3c(c2)Cc2cccc(-c4cc(=O)cc(N5CCOCC5)o4)c2S3)C[C@H](C)O1` + Cc1nc(Nc2ncc(C(=O)Nc3c(C)cccc3Cl)s2)cc(N2CCN(CCO)CC2)n1 [Dasatinib] (partner 0.075 µM): the relative viability is 0.57 in [9] (first compound 0.04 µM); 0.555 in assay [9] (first compound 0.1265 µM); 0.51 in assay [9] (first compound 0.4 µM); 0.588 in [9] (first compound 4 µM); 0.919 in assay [8] (first compound 0.04 µM); 0.881 in assay [8] (first compound 0.1265 µM). Also, the values for the relative viability in assay [8] (first compound 0.4 µM) and in assay [8] (first compound 4 µM) were 0.968 and 0.797, respectively.
`C[C@@H]1CN(CC(=O)Nc2ccc3c(c2)Cc2cccc(-c4cc(=O)cc(N5CCOCC5)o4)c2S3)C[C@H](C)O1` + N=C(N)NC(=N)NCCc1ccccc1 [Phenformin] (partner 250 µM): the relative viability stood at 0.106 in assay [1] (first compound 0.04 µM); 0.197 in assay [1] (first compound 0.1265 µM); 0.252 in assay [1] (first compound 0.4 µM); 0.138 in [1] (first compound 4 µM); 0.523 in assay [9] (first compound 0.04 µM); 0.617 in assay [9] (first compound 0.1265 µM). In addition, the relative viability in [9] (first compound 0.4 µM) was 0.54; in assay [9] (first compound 4 µM), 0.61; in assay [8] (first compound 0.04 µM), 0.261; in [8] (first compound 0.1265 µM), 0.274; in [8] (first compound 0.4 µM) it was 0.262; in assay [8] (first compound 4 µM), 0.317.
As for `COc1cc(N2CCC(C(N)=O)CC2)ccc1Nc1nc(N)c(Cl)c(Nc2ccccc2S(=O)(=O)C(C)C)n1` [HG-5-88-01] + Cc1nc(Nc2ncc(C(=O)Nc3c(C)cccc3Cl)s2)cc(N2CCN(CCO)CC2)n1 [Dasatinib] (partner 0.075 µM), the relative viability came out at 0.533 in [9] (first compound 0.04 µM); 0.532 in assay [9] (first compound 0.1265 µM); 0.498 in [9] (first compound 0.4 µM); 0.486 in assay [9] (first compound 4 µM); 0.939 in assay [8] (first compound 0.04 µM); 0.941 in assay [8] (first compound 0.1265 µM). Moreover, the values for the relative viability in [8] (first compound 0.4 µM), in [8] (first compound 1.265 µM) and in assay [8] (first compound 4 µM) were 0.791, 0.514 and 0.664, respectively.
